Test results: patent US8829014B2, “Thiazole and thiophene analogues, and their use in treating autoimmune diseases and cancers” (Board of Supervisors of Louisiana State University and …, priority 2006, dated 2014)

Columns and labels:
NF-κB = test: TNF-α-induced NF-κB-dependent luciferase expression in HEK cells; type: cell-based; conditions: luciferase in HEK/NF-κB cells, as described in Example 398; for inhibition at 1 µM: Homo sapiens, HEK293, 1 uM, read-out: NFkB inhibition @ 1 uM
AP-1 = test: PMA-induced AP-1 luciferase expression in HEK cells; type: cell-based; conditions: luciferase in HEK/AP-1 cells, as described in Example 398; for inhibition at 1 µM: AP1, 1 uM
carageenan-induced edema = test: Carrageenan-induced rat paw edema test (anti-inflammatory activity); type: in vivo, Sprague-Dawley rats; conditions: rat paw edema, 50 mg/kg, reading 3 hours after carrageenan, [(Control−Test)/Control]×100%; for inhibition in vivo at 50 mg/kg: Rattus norvegicus, po, 3 h, read-out: % Protection P
Outline: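 Sprague-Dawley rats (male and female, 150-250 g), fasted 18 h, given compound orally at 50 mg/kg in 0.1% sodium CMC (alternatively i.v., s.c. or i.p.). 1% carrageenan injected sub-plantar in right hind paw 1 h later. Paw displacement read again 3 h later; % protection = [(Control−Test)/Control]×100 versus saline control.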

Compound | % Protection P (carageenan-induced edema) [%] | inhibition in vivo at 50 mg/kg (carageenan-induced edema) [%] | further results
2-[4-(4-Methylsulfanyl-phenyl)-5-morpholin-4-yl-thiophen-2-yl]-3-phenyl-3H-quinazolin-4-one [Example 276] | 49 |  | NFkB inhibition @ 1 uM (NF-κB): −10; AP-1 inhibition @ 1 uM (AP-1): −17
4-{3-(4-Methanesulfonyl-phenyl)-5-[5-methyl-5-(2,2,2-trifluoro-ethoxy)-pyridine-2-yl]-thiophene-2-yl}-morpholine [Example 53] | 2.08 |  | NFkB inhibition @ 1 uM (NF-κB): −2.17; AP-1 inhibition @ 1 uM (AP-1): 25.04
Cc1ccc(C(=O)c2cc(-c3ccccc3)c(N3CCOCC3)s2)cc1 [Example 43, (5-Morpholin-4-yl-4-phenyl-thiophen-2-yl)-p-tolyl-methanone] |  | 5.33 | inhibition at 1 µM (NF-κB): -15.3%; inhibition at 1 µM (AP-1): 27.3%
COc1ccc(C(=O)c2cc(-c3ccccc3)c(N3CCOCC3)s2)cc1 [Example 44, (4-Methoxy-phenyl)-(5-morpholin-4-yl-4-phenyl-thiophene-2-yl)-methanone] |  | 66.7 | inhibition at 1 µM (NF-κB): 14.9%; inhibition at 1 µM (AP-1): 55.4%
CSc1ccc(C(=O)c2cc(-c3ccccc3)c(N3CCOCC3)s2)cc1 [Example 47, (4-Methylsulfanyl-phenyl)-(5-morpholin-4-yl-4-phenyl-thiophene-2-yl)-methanone] |  | 5 | inhibition at 1 µM (NF-κB): -1.5%; inhibition at 1 µM (AP-1): 21.2%
O=C(c1ccncc1)c1cc(-c2ccccc2)c(N2CCOCC2)s1 [Example 51, (5-Morpholin-4-yl-4-phenyl-thiophene-2-yl)-pyridine-4-yl-methanone] |  | 39.6 | inhibition at 1 µM (NF-κB): 8.36%; inhibition at 1 µM (AP-1): 16.8%
COc1c(C)cc(-c2cc(-c3ccc(S(C)(=O)=O)cc3)c(N3CCOCC3)s2)nc1C [Example 52, 4-[3-(4-Methanesulfonyl-phenyl)-5-(5-methoxy-4,6-dimethyl-pyridine-2-yl)-thiophene-2-yl]-morpholine] |  | 61.1 | inhibition at 1 µM (NF-κB): 5.81%; inhibition at 1 µM (AP-1): -7.93%
COc1ccc(C(=O)c2cc(-c3ccc(S(C)(=O)=O)cc3)c(N3CCOCC3)s2)cc1 [Example 56, [4-(4-Methanesulfonyl-phenyl)-5-morpholin-4-yl-thiophene-2-yl]-(4-methoxy-phenyl)-methanone] |  | 77.8 | inhibition at 1 µM (NF-κB): 18.1%; inhibition at 1 µM (AP-1): 76.1%
CS(=O)(=O)c1ccc(-c2cc(C(=O)c3ccncc3)sc2N2CCOCC2)cc1 [Example 63, [4-(4-Methanesulfonyl-phenyl)-5-morpholin-4-yl-thiophene-2-yl]-pyridin-4-yl-methanone] |  | 50 | inhibition at 1 µM (NF-κB): 10.5%; inhibition at 1 µM (AP-1): 5.71%
COc1c(C)cc(C(=O)c2cc(-c3ccc(NC(C)=O)cc3)c(N3CCOCC3)s2)nc1C [Example 64, N-{4-[5-(5-Methoxy-4,6-dimethyl-pyridine-2-carbonyl)2-morpholin-4-yl-thiophene-3-yl]-phenyl}-acetamide] |  | 49 | inhibition at 1 µM (NF-κB): -4.95%; inhibition at 1 µM (AP-1): 26.2%
CC(=O)Nc1ccc(-c2cc(C(=O)c3ccccc3)sc2N2CCOCC2)cc1 [Example 66, N-[4-(5-Benzoyl-2-morpholin-4yl-thiophene-3-yl)-phenyl]-acetamide] |  | 40 | inhibition at 1 µM (NF-κB): 24.2%; inhibition at 1 µM (AP-1): -2.98%
CC(=O)Nc1ccc(-c2cc(C(=O)c3ccc(Cl)cc3Cl)sc2N2CCOCC2)cc1 [Example 70, N-{4-[5-(2,4-Dichloro-benzoyl)-2-morpholin-4-yl-thiophene-3-yl]-phenyl}-acetamide] |  | 39.2 | inhibition at 1 µM (NF-κB): 18.6%; inhibition at 1 µM (AP-1): 54%
CC(=O)Nc1ccc(-c2cc(-c3nc4ccccc4c(=O)n3-c3ccccc3)sc2N2CCOCC2)cc1 [Example 274, N-{4-[2-Morpholin-4-yl-5-(4-oxo-3-phenyl-3-,4-dihydro-quinazolin-2-yl)-thiophene-3-yl]-phenyl}-acetamide] | 28 |  | NFkB inhibition @ 1 uM (NF-κB): 29
O=c1c2ccccc2nc(-c2cc(-c3ccncc3)c(N3CCOCC3)s2)n1-c1ccccc1 [Example 277] | 65 |  | AP-1 inhibition @ 1 uM (AP-1): 38
COc1ccccc1-n1c(-c2cc(-c3ccncc3)c(N3CCOCC3)s2)nc2ccccc2c1=O [Example 298] | 42 |  | NFkB inhibition @ 1 uM (NF-κB): 55
O=C(Nc1ccc(F)cc1)Nc1nc(Nc2ccc(Cl)cc2)sc1C(=O)c1ccncc1 [Example 360, 1-[2-(4-Chloro-phenylamino)-5-(pyridine-4-carbonyl)-thiazol-4-yl]-3-(4-fluoro-phenyl)-urea] |  | 69.8 | 
Cc1cc(-c2sc(Nc3ccc(Cl)cc3)nc2NC(=O)Nc2ccc(F)cc2)ncc1OCC(F)(F)F [Example 361, 1-{2-(4-Chloro-phenylamino)-5-[4-methyl-5-(2,2,2-trifluoro-ethoxy)-pyridin-2-yl]-thiazol-4-yl}-3-(4-fluoro-phenyl)-urea] |  | 77.9 | 

Compound | % Protection P (carageenan-induced edema) [%] | inhibition in vivo at 50 mg/kg (carageenan-induced edema) [%] | further results
COc1ccc(Nc2nc(NC(=O)Nc3ccc(F)cc3)c(C(=O)c3ccc(C)cc3)s2)cc1 [Example 362, 1-[2-(4-Methoxy-phenylamino)-5-(4-methyl-benzoyl)-thiazol-4-yl]-3-(4-fluoro-phenyl)-urea] |  | 61.3 | 
COc1ccc(Nc2nc(NC(=O)Nc3ccc(F)cc3)c(C(=O)c3ccc(Cl)cc3)s2)cc1 [Example 363, 1-[5-(4-Chloro-benzoyl)-2-(4-methoxy-phenylamino)-thiazol-4-yl]-3-(4-fluoro-phenyl)-urea] |  | 54.5 | 
COc1ccc(Nc2nc(NC(=O)Nc3ccc(F)cc3)c(C(=O)c3ccc(S(C)(=O)=O)cc3)s2)cc1 [Example 364, 1-(4-Fluoro-phenyl)-3-[5-(4-methanesulfonyl-benzoyl)-2-(4-methoxy-phenylamino)-thiazol-4-yl]-urea] | 66.78 |  | 
COc1ccc(Nc2nc(NC(=O)Nc3ccc(F)cc3)c(C(=O)c3ccncc3)s2)cc1 [Example 365, 1-(4-Fluoro-phenyl)-3-[2-(4-methoxy-phenylamino)-5-(pyridine-4-carbonyl)-thiazol-4-yl]-urea] |  | 69.6 | 
COc1ccc(Nc2nc(NC(=O)Nc3ccc(F)cc3)c(-c3cc(C)c(OC)c(C)n3)s2)cc1 [Example 366, 1-(4-Fluoro-phenyl)-3-[5-(5-methoxy-4,6-dimethyl-pyridin-2-yl)-2-(4-methoxy-phenylamino)-thiazol-4-yl]-urea] |  | 19.1 | 
COc1ccc(C(=O)c2sc(N3CCN(C(=O)c4ccco4)CC3)nc2-c2ccco2)cc1 [Example 372, {2-[4-(Furan-2-carbonyl)-piperazin-1-yl]-4-furan-2-yl-thiazol-5-yl}-(4-methoxy-phenyl)-methanone] |  | 52.2 | 
O=C(c1ccccn1)c1sc(N2CCN(C(=O)c3ccco3)CC2)nc1-c1ccco1 [Example 380, {2-[4-(Furan-2-carbonyl)-piperazin-1-yl]-4-furan-2-yl-thiazol-5-yl}-pyridin-2-yl-methanone] |  | 42 | 
Cc1ccc(C(=O)c2sc(N3CCN(C(=O)c4ccco4)CC3)nc2-c2ccccc2)cc1 [Example 381, {2-[4-(Furan-2-carbonyl)-piperazin-1-yl]-4-phenyl-thiazol-5-yl}-tolyl-methanone] | 53 |  | AP-1 inhibition @ 1 uM (AP-1): 10.42
COc1ccc(C(=O)c2sc(N3CCN(C(=O)c4ccco4)CC3)nc2-c2ccccc2)cc1 [Example 382, {2-[4-(Furan-2-carbonyl)-piperazin-1-yl]-4-phenyl-thiazol-5-yl}-(4-methoxy-phenyl)-methanone] |  | 46 | 
O=C(c1ccncc1)c1sc(N2CCN(C(=O)c3ccco3)CC2)nc1-c1ccccc1 [Example 387, {2-[4-(Furan-2-carbonyl)-piperazin-1-yl]-4-phenyl-thiazol-5-yl}-pyridin-4-yl-methanone] |  | 32 | 
COc1ccccc1Nc1nc(-c2ccccc2)c(C(=O)c2sc(Nc3ccccc3OC)nc2-c2ccccc2)s1 [Example 391, Bis-[2-(2-methoxy-phenylamino)-4-phenyl-thiazol-5-yl]-methanone] |  | 59 | 
COc1cccc(Nc2nc(-c3ccccc3)c(C(=O)c3sc(Nc4cccc(OC)c4)nc3-c3ccccc3)s2)c1 [Example 392, Bis-[2-(3-methoxy-phenylamino)-4-phenyl-thiazol-5-yl]-methanone] |  | 62 | 
COc1ccc(Nc2nc(-c3ccccc3)c(C(=O)c3sc(Nc4ccc(OC)cc4)nc3-c3ccccc3)s2)cc1 [Example 393, Bis-[2-(4-methoxy-phenylamino)-4-phenyl-thiazol-5-yl]-methanone] |  | 32 | 
Bis-(2-methylamino-4-benzayl-thiazole-5-yl)-methanone [Example 132] | 47 |  | 
Diphenyl[carbonylbis(4-Benzyl-1,3-thiazole-5,2-diyl)]biscarbamate [Example 395] | 66 |  | 
N-[4-(5-Morpholin-4-yl-4-thiophene-2-carbonyl)-phenyl]-acetamide [Example 49] | 68.31 |  | 
[4-(4-Chloro-phenyl)-5-morpholin-4-yl-thiophen-2-yl]-(5-methoxy-4,6-dimethyl-pyridin-2-yl)-methanone [Example 76] | 17 |  | 
